How the values were obtained:
[1] = system: 20S proteasome (CT-L, C-L, T-L activities) in whole blood; experiment: In vivo proteasome activity in whole blood; set-up: species or system mice; conditions: 48 h after dose
Method: For the cellular proteasome activity assays, cells were treated with concentrations of compounds (0-10 μM) for 1 h at 37 °C and the CT-L, C-L and T-L activities of proteasome were evaluated by using the Proteasome-Glo assay reagents (Promega Corp. Madison, WI, USA) according to the manufacturer's protocol. For determination of recovery of cellular proteasome activity, cells were treated with the compounds for 1 h and then washed thrice in PBS to remove the compounds. Cells were incubated in fresh medium for an additional 4, 24 or 72 h at 37 °C. […] Blood samples were collected after 1 h, and whole blood cells were then analyzed for proteasome activity as previously described.
For the pharmacodynamic study, female BNX mice (n=6; 5-7 weeks old; Shanghai Sippr-BK laboratory Animal Co. Ltd.) were given one single dose of NNU219 (0.4 mg/kg) and bortezomib (1 mg/kg) by i.v. administrations or NNU546 (2-15 mg/kg) by oral gavage. […] Tissue homogenates and cell lysates were removed by centrifugation and supernatants were collected for protein quantitation and proteasome activity determination using the Proteasome-Glo assay reagents as described above.

[2] = Microsomal stability, human liver microsomes; type: in vitro ADME; conditions: pooled human liver microsomes, 1 μM compound, 37 °C
Method: (§1) Microsomal stabilities were determined by incubating 1 μM of the test compounds with rat, mouse, dog, monkey or human liver microsomes (Xenotech, USA) for different durations at 37 °C. Clearance and T1/2 were calculated by measuring the remaining percentage of test compounds at different time-points. Liquid chromatography/mass spectrometry (Xevo Quadrupole Time-of-Flight Mass Spectrometer; Waters) and an ACQUITY High-Performance Liquid Chromatography (HPLC) system ([…]) were used to determine the relative peak area for the parent compounds.
(§2) Antipyrine and testosterone (5 μM each)
(§3) were used as positive and negative controls, respectively. Abbreviations: t = time; CLint, intrinsic clearance. […]

ARH77 xenograft = experiment: ARH77 MM xenograft model; type: in vivo, mice; conditions: BIW, 3 weeks
Method: For the ARH77 xenograft model, female BNX mice (n=5; 5-7 weeks old; Shanghai Sippr-BK laboratory Animal Co. Ltd.) were implanted with 5×10^6 of ARH77 cells in Matrigel (1:1) and randomized into treatment and vehicle groups when the mean tumor volume (MTV) reached 100-150 mm^3. For the intravenous treatment groups, mice were treated with bortezomib (1 mg/kg, BIW) or NNU219 (0.4 mg/kg, BIW), respectively. For i.g. administration, mice were treated with ixazomib (5 mg/kg, BIW) and NNU546 (1 mg/kg, QD) or NNU546 (2 mg/kg, QOD). Tumors were measured twice a week and the tumor volume was calculated using the following formula: 0.5 × (length × width^2).

[3] = Microsomal stability, mouse liver microsomes; type: in vitro ADME; conditions: pooled mouse liver microsomes, 1 μM compound, 37 °C
Method: as §1, §2, §3

[4] = system: NF-κB/luciferase 293T cells; experiment: NF-κB inhibition assay (luciferase reporter, TNF-α stimulated); type: cell-based; conditions: Homo sapiens, HEK-293T; 6 h pre-treatment, then 10 ng/ml TNF-α for 18 h; read from Figure 3K
Method: To determine the inhibition of NF-κB signaling, the transfected NF-κB/luciferase 293T cells were pre-treated with various concentrations of NNU219 or bortezomib for 6 h and then stimulated with 10 ng/ml of tumor necrosis factor-α (TNF-α) for 18 h, followed by measurement of luciferase activity by using the Dual-Luciferase® Reporter Assay System (Promega Corp., Madison, WI, USA) as previously described.

[5] = Microsomal stability, rat liver microsomes; type: in vitro ADME; conditions: pooled rat liver microsomes, 1 μM compound, 37 °C
Method: as §1, §2, §3

[6] = system: patient-derived primary human MM xenografts; experiment: Patient-derived MM xenograft (PDX) model in NCG mice; type: in vivo; conditions: 5 mg/kg i.g., BIW, 3 weeks
Description: The PDX model was generated from biopsies of patients with MM brain manifestation at the Department of Hematology, the 1st Affiliated Hospital of Nanjing Medical University. Freshly excised tumor tissue specimens were washed and cut into 2.5×2.5×2.5 mm^3 pieces in antibiotic-containing L-15 medium. Under anesthesia with pentobarbital, 4-6 weeks-old male NCG mice (n=6; Model Animal Research Center of Nanjing University) were subcutaneously transplanted with the tumor pieces. Tumors were harvested when their size reached 500 mm^3 (Px1 xenografts). Tumor tissue from Px1 xenograft mice was divided into small pieces and then implanted again subcutaneously as described above to obtain Px2 xenografts. This process was once more and the experiments were performed on Px3 xenograft mice, which were randomized into treatment groups when tumor volume reached 100-150 mm^3. Mice were orally administered with ixazomib (5 mg/kg, i.g., BIW) or NNU546 (1 mg/kg, QD). Tumors were measured twice a week.

| SMILES | proteasome inhibition in whole blood at 48 h [1] | CLint scaled at 1 μM [2] [mL/min/kg] | half-life at 1 μM [2] [min] | reduction of tumor volume (ARH77 xenograft; 1 mg/kg i.v.) [%] | CLint scaled at 1 μM [3] [mL/min/kg] | half-life at 1 μM [3] [min] | IC50 [4] [µM] | CLint scaled at 1 μM [5] [mL/min/kg] | half-life at 1 μM [5] [min] | reduction of tumor volume [6] [%] | reduction of tumor progression (ARH77 xenograft; 5 mg/kg i.g.) [%] |
| --- | --- | --- | --- | --- | --- | --- | --- | --- | --- | --- | --- |
| CC(C)C[C@H](NC(=O)[C@H](Cc1ccccc1)NC(=O)c1cnccn1)B(O)O [bortezomib] | only minimal or no inhibition | 58.3 | 21.4 | 24.9 | 509 | 10.7 | 0.0188 | 200 | 12.4 |  |  |
| CC(C)C[C@H](NC(=O)CNC(=O)c1cc(Cl)ccc1Cl)B(O)O [ixazomib] |  |  |  |  |  |  |  |  |  | 30.5 | 36.3 |
